Experimental data: patent US6469042B1, “Fluoro oxindole derivatives as modulators if KCNQ potassium channels” (Bristol-Myers Squibb Company, priority 2001, dated 2002)
Marks after values point to notes of the source that are not given here.

Legend:
[1] = biological target: T1, cloned mouse KCNQ2 (mKCNQ2) (Mus musculus, UniProt Q9Z351); assay: KCNQ oocyte two-electrode voltage clamp, KCNQ2-mediated outward current; assay type: cell-based; conditions: expressed as percent increase over KCNQ current in controls, Xenopus oocytes
T1 construct: expressed in transfected cells; host or cells: Xenopus oocytes injected with mKCNQ2 cRNA
Experimental: The ability of compounds described in the present invention to open KCNQ channels and increase whole-cell outward (K^+) KCNQ-mediated currents was assessed under voltage-clamp conditions by determining their ability to increase cloned mouse KCNQ2 (mKCNQ2)-mediated, heteromultimeric KCNQ2/3 (mμKCNQ2/3)-mediated, and human KCNQ5 (hKCNQ5)-mediated outward currents heterologously expressed in Xenopus oocytes. Oocytes were prepared and injected using standard techniques; each oocyte was injected with approximately 50 nl of mKCNQ2, or hKCNQ5 cRNA. In the case of mKCNQ2/3 heteromultimeric channel expression, equal amounts (25-50 nL) of ech cRNA were co-injected. […] Following injection, oocytes were maintained at 17° in ND96 medium consisting of (in mM): NaCl, 90; KCl, 1.0; CaCl2, 1:0; MgCl2, 1:0; HEPES, 5.0; pH 7.5. Horse serum (5%) and penicillin/streptomyin (5%) were added to the incubation medium. Recording commenced 2-6 days following mRNA injection. Prior to the start of an experiment oocytes were placed in a recording chamber and incubated in Modified Barth's Solution (MBS) consisting of (in mM): NaCl, 88; NaHCO3, 2.4; KCl, 1.0; HEPES, 10; MgSO4, 0.82; Ca(NO3)2, 0.33; CaCl2, 0.41; pH 7.5.
Oocytes were impaled with electrodes (1-2 MΩ) and standard 2-electrode voltage clamp techniques were employed to record whole-cell membrane currents. Recordings were accomplished using standard two-electrode voltage clamp techniques [Stuhmer, W., et al., Methods in Enzymolgy, Vol. 207: 319-339 (1992)]. Voltage-clamp protocols typically consisted of a series of voltage steps 1-5 sec duration, in +10 mV steps from a holding potential of −90 mV to a maximal potential of +40 mV; records were digitized at 5 kHz and stored on a computer using pClamp data acquisition and analysis software (Axon Instruments). Compounds were evaluated at a single concentration (10 or 20 μM); the effect of the selected compounds of Formula I on KCNQ2 current was expressed as the percent of control current and is listed in Table I.

[2] = tested on: SSS-stimulated trigeminal field response in trigeminal nucleus caudalis; assay: In vivo electrophysiology: superior sagital sinus (SSS)-stimulated trigeminal field response (migraine model); parameters: species or system rat
Source text: Male Long-Evans rats (Harlan, 250-400 g) were used in the experiments described in this example. Prior to testing, rats were allowed access to food and water ad libitum and were maintained on a 12:12-h light/dark cycle. Rats were group housed in an Association for Assessment and Accreditation of Laboratory Animal Care (AAALAC) accredited facility and cared for in strict compliance with all applicable regulations.
Rats were anesthetized with 1.2 g/kg i.p. urethane (#U-2500, Sigma Chemical Company, St. Louis, Mo.) and given supplemental urethane as needed. In the case of intravenous (i.v.) drug administration, the jugular veins of the rats were cannulated using sylastic tubing pre-filled with vehicle.
Rats were placed in a stereotaxic device (#1730, David Kopf Instruments, Tujunga, Calif.) and an incision was made to expose the entire skull that continued caudally to the level of the C1/C2 vertebral juncture. Using a microdrill (#770, Dremel, Racine, Wis.) and #4 carbide burr (Henry Schein, Melville, N.Y.), a square section of skull was removed extending from the bregma position, rostrally, to the lambda position, caudally. […]
Stimulated field responses were recorded in the trigeminal nucleus caudalis using Teflon coated stainless-steel microelectrodes (5 megaohms impedance, Frederick Haer, Brunswick, Me.) and amplified and filtered (0.1 Hz-10 kHz) using a differential amplifier (#IsoDAM8, World Precision Instruments, Sarasota, Fla.). […]
Three baseline measures (i.e., 100% of control), each consisting of 100 evoked trigeminal field potentials, were sampled prior to drug injection. […] Following injection of test substances, data were sampled for 1 hour, averaged into 5 minute bins (90 evoked potentials) and expressed as a percent change from average baseline values for the purposes of statistical analysis. Data were analyzed using repeated measures analyses of variance comparing vehicle and drug effects. […]

T1 sequence (Q9Z351 whole entry): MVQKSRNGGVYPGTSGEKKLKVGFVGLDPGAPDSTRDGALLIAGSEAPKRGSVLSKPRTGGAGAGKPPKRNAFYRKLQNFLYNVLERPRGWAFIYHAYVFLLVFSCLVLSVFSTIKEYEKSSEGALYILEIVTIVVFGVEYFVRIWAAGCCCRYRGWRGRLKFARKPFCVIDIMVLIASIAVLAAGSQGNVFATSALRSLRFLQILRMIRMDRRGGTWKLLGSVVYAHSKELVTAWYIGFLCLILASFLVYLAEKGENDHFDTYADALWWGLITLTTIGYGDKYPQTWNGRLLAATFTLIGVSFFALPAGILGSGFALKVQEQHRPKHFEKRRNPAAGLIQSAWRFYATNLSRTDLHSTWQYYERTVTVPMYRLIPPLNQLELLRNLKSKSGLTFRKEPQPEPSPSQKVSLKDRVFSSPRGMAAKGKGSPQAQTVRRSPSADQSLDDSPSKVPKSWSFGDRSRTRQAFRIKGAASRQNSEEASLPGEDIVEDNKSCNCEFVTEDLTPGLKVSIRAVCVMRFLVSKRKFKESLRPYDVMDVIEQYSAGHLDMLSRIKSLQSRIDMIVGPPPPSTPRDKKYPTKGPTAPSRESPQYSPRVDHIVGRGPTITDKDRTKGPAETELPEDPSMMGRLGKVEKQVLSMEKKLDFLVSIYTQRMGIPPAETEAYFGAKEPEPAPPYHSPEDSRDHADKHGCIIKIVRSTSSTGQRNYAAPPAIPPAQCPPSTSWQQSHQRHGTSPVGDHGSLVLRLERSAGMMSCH

Compound	melting point [°C]	KCNQ2 Current ([1]; at 20 μM)	further results
O=C1Nc2cc(C(F)(F)F)ccc2C1(F)c1cc(Cl)ccc1OCC(F)(F)F (racemic) [Example 1, (±)-3-[5-Chloro-2-[(2,2,2-trifluoroethoxy)phenyl]-1,3-dihydro-3-fluoro-6-(trifluoromethyl)-2H-indol-2-one]	–	–	KCNQ2 Current ([1]; at 10 μM): ++** (++ = >150%)
O=C1Nc2cc(C(F)(F)F)ccc2C1(F)c1cc(Cl)ccc1OCC(F)(F)F (racemic) [Example 2, (±)-3-[5-Chloro-2-[(2,2,2-trifluoroethoxy)phenyl]-1,3-dihydro-3-fluoro-6-(trifluoromethyl)-2H-indol-2-one]	–	–	KCNQ2 Current ([1]; at 10 μM): ++** (++ = >150%); decrease from control amplitude of SSS-stimulated trigeminal field response ([2]; 50 mg/kg i.v., anesthetized Long-Evans rats, solution in 100% polyethylene glycol 400): 86.7±1.67%; reduction of trigeminal field response compared with vehicle ([2]; doses 0.1, 1.0, 10.0, 30.0 and 50.0 mg/kg i.v., p<0.01 in all cases): Significant reductions compared with vehicle; reduction in the SSS-stimulated trigeminal field response ([2]; i.v., rats, overall ANOVA p<0.001): dose-dependent reduction
O=C1Nc2cc(F)ccc2C1(F)c1cc(Cl)ccc1OCC(F)(F)F (racemic) [Example 6, (±)-3-[5-Chloro-2-(2,2,2-trifluoroethoxy)phenyl]-1,3-dihydro-3,6-difluoro-2H-indol-2-one]	200 to 202	–	–
O=C1Nc2cc(CF)ccc2C1(F)c1cc(Cl)ccc1OCC(F)(F)F (racemic) [Example 7, (±)-3-[5-Chloro-2-(2,2,2-trifluoroethoxy)phenyl]-1,3-dihydro-3-fluoro-6-(fluoromethyl)-2H-indol-2-one]	150 to 151	–	–
O=C1Nc2cc(F)c(F)cc2C1(F)c1cc(Cl)ccc1OCC(F)(F)F (racemic) [Example 10, (±)-3-[5-Chloro-2-(2,2,2-trifluoroethoxy)phenyl]-1,3-dihydro-3,5,6-trifluoro-2H-indol-2-one]	200 to 203	+ (+ = 120-150%)	–
O=C1Nc2cc(Cl)ccc2C1(F)c1cc(Cl)ccc1OCC(F)(F)F (racemic) [Example 11, (±)-6-Chloro-3-[5-chloro-2-(2,2,2-trifluoroethoxy)phenyl]-1,3-dihydro-3-fluoro-2H-indol-2-one]	167 to 169	++ (++ = >150%)	–
O=C1Nc2cc(C(F)(F)F)ccc2C1(F)c1cc(Cl)ccc1OCCF (racemic) [Example 14, (±)-3-[5-Chloro-2-(2-fluoroethoxy)phenyl]-1,3-dihydro-3-fluoro-6-(trifluoromethyl)-2H-indol-2-one]	–	+ (+ = 120-150%)	–
O=C1Nc2cc(-c3ccc(C(F)(F)F)cc3)ccc2C1(F)c1cc(Cl)ccc1OCC(F)(F)F (racemic) [Example 23, (±)-3-[5-Chloro-2-(2,2,2-trifluoroethoxy)phenyl]-1,3-dihydro-3-fluoro-6-[4-(trifluoromethyl)phenyl]-2H-indol-2-one]	103 to 105	–	–
O=C1Nc2cc(Cl)ccc2C1(F)c1cc(Cl)ccc1OCC(F)(F)F (single isomer, unassigned; (+)) [Example 12, (+)-6-Chloro-3-[5-chloro-2-(2,2,2-trifluoroethox)phenyl]-1,3-dihydro-3-fluoro-2H-indol-2-one]	–	++ (++ = >150%)	–
CCSc1ccc(Cl)cc1C1(F)C(=O)Nc2cc(C(F)(F)F)ccc21 (stereo not shown) [Example 17, 3-[5-Chloro-2-(ethylthio)phenyl]-1,3-dihydro-3-fluoro-6-(trifluoromethyl)-2H-indol-2-one]	105 to 107	–	–
(±)-3-[5-Chloro-2-(2,2,2-trifluoroethoxy)phenyl]-5,6-dichloro-1,3-dihydro-3-fluoro-2H-indol-2-one [Example 9]	–	+ (+ = 120-150%)	–
